# Results taken from ChEMBL document CHEMBL1201862, “PubChem BioAssay data set” (2004).
# Structures can show the parent of a compound that is named as a salt. The source made the active and inactive calls.
# Assays:
# [1] = molecular target: T1, Beta-2 adrenergic receptor (Homo sapiens, UniProt P07550); experiment: ADRB2 activation measured by internalization – cell-based, FAP fluorogen, flow cytometry, cherry pick 1, dose response (AID 588763); type: functional
# [2] = molecular target: T2, Carboxy-terminal domain RNA polymerase II polypeptide A small phosphatase 1 (Homo sapiens, UniProt Q9GZU7); experiment: CTDSP1 inhibitors, concentration-response, biochemical, absorbance readout, ultra-high-throughput screen actives (AID 540297); type: functional
# T2 sequence (Q9GZU7 whole entry): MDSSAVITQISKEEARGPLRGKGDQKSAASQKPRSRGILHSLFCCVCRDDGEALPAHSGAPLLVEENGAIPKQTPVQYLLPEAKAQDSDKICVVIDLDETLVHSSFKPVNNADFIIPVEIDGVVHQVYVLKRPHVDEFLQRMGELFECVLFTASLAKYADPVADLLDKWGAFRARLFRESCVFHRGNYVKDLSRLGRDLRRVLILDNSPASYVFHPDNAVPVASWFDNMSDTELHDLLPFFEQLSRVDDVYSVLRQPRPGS
# [3] = molecular target: T1, Beta-2 adrenergic receptor; experiment: Dose response for HTS for Beta-2AR agonists via FAP method from Powderset1.; type: functional
# Beta Lactamase [4] = molecular target: T3, Beta Lactamase (Pseudomonas aeruginosa, UniProt Q932Y6); experiment: concentration-dependent VIM-2 enzyme inhibition – biochemical, epi-absorbance readout, selective inhibitors, dose response (AID 1919)
# T3 sequence (Q932Y6 whole entry): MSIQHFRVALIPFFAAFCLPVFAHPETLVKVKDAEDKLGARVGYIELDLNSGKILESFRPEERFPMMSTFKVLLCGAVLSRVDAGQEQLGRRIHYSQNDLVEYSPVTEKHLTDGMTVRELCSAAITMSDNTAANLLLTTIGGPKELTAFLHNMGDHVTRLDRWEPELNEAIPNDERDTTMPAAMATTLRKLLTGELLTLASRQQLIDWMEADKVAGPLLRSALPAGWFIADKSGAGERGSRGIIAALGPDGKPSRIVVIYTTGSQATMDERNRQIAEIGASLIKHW
# Beta-lactamase [5] = molecular target: T4, Beta-lactamase (Pseudomonas aeruginosa, UniProt Q79MP6); experiment: inhibition of IMP-1 beta-lactamase activity – biochemical, epi-absorbance, selectivity assay for VIM-2 inhibitor project, dose response (AID 1920)
# T4 sequence (Q79MP6 whole entry): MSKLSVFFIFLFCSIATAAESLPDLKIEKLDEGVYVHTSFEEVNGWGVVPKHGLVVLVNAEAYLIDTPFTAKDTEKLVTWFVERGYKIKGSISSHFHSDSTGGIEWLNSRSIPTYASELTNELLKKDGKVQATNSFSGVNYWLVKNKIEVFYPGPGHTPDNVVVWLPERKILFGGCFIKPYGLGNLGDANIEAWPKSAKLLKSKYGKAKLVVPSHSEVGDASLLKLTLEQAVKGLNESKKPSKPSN
# Beta Lactamase [6] = molecular target: T3, Beta Lactamase; experiment: VIM-2 CCF2 hydrolysis inhibition, assay artifact filter – biochemical, FRET readout, CCF2 substrate, artefact control for selective VIM-2 inhibitor project, dose response (AID 1926)
# Beta-lactamase [7] = molecular target: T4, Beta-lactamase; experiment: […] counterscreen for selective VIM-2 inhibitors: dose response biochemical high throughput screening assay to identify inhibitors of IMP-1 metallo-beta-lactamase.
# Beta-lactamase [8] = molecular target: Beta-lactamase (Salmonella choleraesuis (strain SC-B67), UniProt Q5J463); experiment: Epi-absorbance-based counterscreen for selective VIM-2 inhibitors: dose response biochemical high throughput screening assay to identify inhibitors of TEM-1 serine-beta-lactamase.
# Chain of Beta-lactamase (Salmonella choleraesuis (strain SC-B67), UniProt Q5J463) (Q5J463 whole entry): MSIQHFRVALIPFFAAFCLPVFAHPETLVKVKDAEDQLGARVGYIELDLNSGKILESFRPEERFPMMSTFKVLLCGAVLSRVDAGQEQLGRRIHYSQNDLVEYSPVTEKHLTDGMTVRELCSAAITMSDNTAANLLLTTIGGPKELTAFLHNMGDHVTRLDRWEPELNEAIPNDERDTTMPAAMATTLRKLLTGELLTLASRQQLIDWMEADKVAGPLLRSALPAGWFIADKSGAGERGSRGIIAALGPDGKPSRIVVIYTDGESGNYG
# [9] = viability loss in HEK293T cells – cell-based, cherry-picks, cytotoxicity control for HIV Vif inhibitor project, dose response (AID 652208); type: functional
# [10] = molecular target: Arf-GAP with SH3 domain, ANK repeat and PH domain-containing protein 1 (Homo sapiens, UniProt Q9ULH1); type: functional;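 note: biochemical fluorescence polarization dose–response screen measuring inhibition of ASAP1; ASAP1 GAP domain stimulating GTP hydrolysis by truncated human ARF1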
# [11] = molecular target: Dual specificity protein phosphatase 3 (Homo sapiens, UniProt P51452); experiment: VHR phosphatase inhibition, dose response, selectivity assay for STEP inhibitor project, biochemical (AID 602374); type: functional; conditions: read-out: IC50_Mean
# Chain of Dual specificity protein phosphatase 3 (P51452 whole entry): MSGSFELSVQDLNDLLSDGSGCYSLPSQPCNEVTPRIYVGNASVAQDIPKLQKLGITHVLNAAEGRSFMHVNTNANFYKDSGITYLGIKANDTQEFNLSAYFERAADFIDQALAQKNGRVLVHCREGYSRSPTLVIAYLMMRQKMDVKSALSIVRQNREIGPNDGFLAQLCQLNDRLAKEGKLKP
# [12] = molecular target: T5, Tyrosine-protein phosphatase non-receptor type 5 (Homo sapiens, UniProt P54829); experiment: PTPN5 enzyme inhibition – biochemical, fluorescence intensity, uHTS hits, confirmation (AID 602372); type: functional; conditions: read-out: IC50_Mean
# T5 sequence (P54829 whole entry): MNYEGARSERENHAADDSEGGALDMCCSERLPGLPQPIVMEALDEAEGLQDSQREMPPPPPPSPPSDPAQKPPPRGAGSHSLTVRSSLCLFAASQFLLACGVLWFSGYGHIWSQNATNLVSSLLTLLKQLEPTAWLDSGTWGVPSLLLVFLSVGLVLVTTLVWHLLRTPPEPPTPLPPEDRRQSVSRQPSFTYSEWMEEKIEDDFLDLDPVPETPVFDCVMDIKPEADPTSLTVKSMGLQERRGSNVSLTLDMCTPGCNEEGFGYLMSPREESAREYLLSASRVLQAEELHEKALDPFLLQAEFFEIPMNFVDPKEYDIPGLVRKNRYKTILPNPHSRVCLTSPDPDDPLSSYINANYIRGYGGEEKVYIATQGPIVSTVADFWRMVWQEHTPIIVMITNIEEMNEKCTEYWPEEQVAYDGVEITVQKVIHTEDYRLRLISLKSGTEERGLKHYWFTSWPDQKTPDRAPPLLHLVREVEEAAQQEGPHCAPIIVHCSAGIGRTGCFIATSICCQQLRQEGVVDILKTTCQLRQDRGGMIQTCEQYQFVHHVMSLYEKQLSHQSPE
# [13] = molecular target: T6, Tyrosine-protein phosphatase non-receptor type 11 (Homo sapiens, UniProt Q06124); experiment: PTPN11 enzyme inhibitors – biochemical, selectivity assay for STEP inhibitor project, dose response (AID 602367); type: functional; conditions: read-out: IC50_Mean
# T6 sequence (Q06124 whole entry): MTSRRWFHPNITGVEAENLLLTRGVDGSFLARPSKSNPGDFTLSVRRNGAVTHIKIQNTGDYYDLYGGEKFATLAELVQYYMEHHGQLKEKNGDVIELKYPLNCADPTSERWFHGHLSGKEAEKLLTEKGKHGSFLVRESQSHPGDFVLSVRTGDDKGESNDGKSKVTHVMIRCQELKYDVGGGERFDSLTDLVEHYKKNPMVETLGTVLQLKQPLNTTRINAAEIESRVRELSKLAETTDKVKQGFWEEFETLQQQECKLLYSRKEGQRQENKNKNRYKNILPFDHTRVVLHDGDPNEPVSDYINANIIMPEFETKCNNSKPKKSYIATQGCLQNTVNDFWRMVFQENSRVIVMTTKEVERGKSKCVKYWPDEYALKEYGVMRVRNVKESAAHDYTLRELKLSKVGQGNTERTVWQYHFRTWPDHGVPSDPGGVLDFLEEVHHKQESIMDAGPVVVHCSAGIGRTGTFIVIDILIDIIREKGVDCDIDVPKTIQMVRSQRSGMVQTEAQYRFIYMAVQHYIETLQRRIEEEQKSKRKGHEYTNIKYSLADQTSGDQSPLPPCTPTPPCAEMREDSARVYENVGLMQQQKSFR
# Vero = experiment: viability loss in Vero cells – cell-based, plate reader, cherry-pick samples, cytotoxicity control, dose response (AID 687020); type: functional; conditions: Chlorocebus sabaeus
# [14] = molecular target: T7, Sentrin-specific protease 8 (Homo sapiens, UniProt Q96LD8); type: functional
# T7 sequence (Q96LD8 whole entry): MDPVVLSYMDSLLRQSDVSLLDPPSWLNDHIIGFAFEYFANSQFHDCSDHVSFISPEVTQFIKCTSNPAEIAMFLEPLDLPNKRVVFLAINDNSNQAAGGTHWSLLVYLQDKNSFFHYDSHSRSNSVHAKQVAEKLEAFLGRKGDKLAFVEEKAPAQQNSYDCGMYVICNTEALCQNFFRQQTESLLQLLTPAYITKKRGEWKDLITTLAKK
# [15] = molecular target: T7, Sentrin-specific protease 8; type: functional; remark: listed apart in the source
# [16] = molecular target: T8, Replicative DNA helicase DnaB (Mycobacterium tuberculosis, UniProt P9WMR3); experiment: DnaB intein splicing inhibitors, dose response, biochemical, cell-free fluorescence (AID 449749); type: functional
# T8 sequence (P9WMR3 whole entry): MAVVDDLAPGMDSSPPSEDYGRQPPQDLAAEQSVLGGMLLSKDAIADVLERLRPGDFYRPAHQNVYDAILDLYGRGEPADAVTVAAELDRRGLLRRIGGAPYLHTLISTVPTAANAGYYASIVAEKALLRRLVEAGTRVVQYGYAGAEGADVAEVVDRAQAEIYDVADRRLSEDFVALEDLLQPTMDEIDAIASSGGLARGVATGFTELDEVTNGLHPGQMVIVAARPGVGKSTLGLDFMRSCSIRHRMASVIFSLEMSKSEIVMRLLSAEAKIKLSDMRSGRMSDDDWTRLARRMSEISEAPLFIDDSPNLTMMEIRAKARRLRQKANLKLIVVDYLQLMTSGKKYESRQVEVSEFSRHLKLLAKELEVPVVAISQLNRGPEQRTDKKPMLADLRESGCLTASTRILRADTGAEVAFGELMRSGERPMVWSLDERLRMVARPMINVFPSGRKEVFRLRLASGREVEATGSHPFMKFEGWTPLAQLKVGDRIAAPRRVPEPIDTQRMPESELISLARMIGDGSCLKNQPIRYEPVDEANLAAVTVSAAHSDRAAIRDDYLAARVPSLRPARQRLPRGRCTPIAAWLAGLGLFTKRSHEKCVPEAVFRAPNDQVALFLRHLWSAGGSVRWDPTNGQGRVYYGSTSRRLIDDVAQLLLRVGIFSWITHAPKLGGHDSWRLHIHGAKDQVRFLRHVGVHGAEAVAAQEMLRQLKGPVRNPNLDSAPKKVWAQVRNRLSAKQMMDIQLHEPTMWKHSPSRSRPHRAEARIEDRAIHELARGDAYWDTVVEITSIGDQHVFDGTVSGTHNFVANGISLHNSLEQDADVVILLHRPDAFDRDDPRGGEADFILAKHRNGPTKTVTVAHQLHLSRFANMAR
# Protein RecA = molecular target: T9, Protein RecA (Mycobacterium tuberculosis, UniProt P9WHJ3); experiment: Fluorescence Cell-Free Homogeneous Dose Retest to Identify Inhibitors of RecA-Intein Splicing Activity. [Related pubchem assays (depositor defined):AID2097, AID2223, AID489010, AID492950]; type: functional
# T9 sequence (P9WHJ3 whole entry): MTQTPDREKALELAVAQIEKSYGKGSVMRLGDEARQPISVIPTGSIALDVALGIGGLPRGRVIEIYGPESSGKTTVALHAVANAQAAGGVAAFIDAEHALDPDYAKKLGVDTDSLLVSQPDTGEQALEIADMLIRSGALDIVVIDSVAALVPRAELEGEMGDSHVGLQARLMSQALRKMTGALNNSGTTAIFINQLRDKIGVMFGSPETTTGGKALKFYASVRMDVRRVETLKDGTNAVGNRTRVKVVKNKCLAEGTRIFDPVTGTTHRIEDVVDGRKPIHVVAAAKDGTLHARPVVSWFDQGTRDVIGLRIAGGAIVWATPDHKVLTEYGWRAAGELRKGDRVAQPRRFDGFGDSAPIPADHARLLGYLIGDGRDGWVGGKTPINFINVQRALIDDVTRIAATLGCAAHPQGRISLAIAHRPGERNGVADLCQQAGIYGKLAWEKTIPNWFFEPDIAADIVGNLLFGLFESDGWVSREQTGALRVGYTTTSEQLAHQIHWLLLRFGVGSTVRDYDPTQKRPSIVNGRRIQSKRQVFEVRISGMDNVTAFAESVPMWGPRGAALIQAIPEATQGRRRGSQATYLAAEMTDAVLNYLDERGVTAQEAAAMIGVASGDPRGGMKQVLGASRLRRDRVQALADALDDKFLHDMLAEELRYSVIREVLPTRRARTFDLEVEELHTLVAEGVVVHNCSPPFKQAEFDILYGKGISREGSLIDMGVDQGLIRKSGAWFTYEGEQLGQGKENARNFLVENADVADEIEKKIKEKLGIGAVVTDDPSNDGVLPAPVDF
# [17] = molecular target: 5-hydroxytryptamine receptor 2A (Mus musculus, UniProt P35363); type: functional, cell-based;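 note: CHO-K1 cells with tagged receptor and beta-arrestin; agonist potency measured as compound-induced activation of the receptor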
# Chain of 5-hydroxytryptamine receptor 2A (P35363 whole entry): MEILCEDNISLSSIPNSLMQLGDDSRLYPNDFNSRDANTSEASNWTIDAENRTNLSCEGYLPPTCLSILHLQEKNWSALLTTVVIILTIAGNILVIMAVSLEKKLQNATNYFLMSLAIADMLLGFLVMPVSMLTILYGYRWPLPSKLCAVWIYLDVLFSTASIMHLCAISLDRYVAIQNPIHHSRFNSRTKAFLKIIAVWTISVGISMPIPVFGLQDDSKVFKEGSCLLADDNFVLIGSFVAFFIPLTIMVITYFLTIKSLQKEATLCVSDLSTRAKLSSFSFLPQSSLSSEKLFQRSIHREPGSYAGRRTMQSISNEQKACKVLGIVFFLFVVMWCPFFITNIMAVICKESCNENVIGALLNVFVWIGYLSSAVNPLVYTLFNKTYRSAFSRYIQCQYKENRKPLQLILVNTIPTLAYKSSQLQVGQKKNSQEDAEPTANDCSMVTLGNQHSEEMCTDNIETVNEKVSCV
# Mu-type opioid receptor = Mu-type opioid receptor (Homo sapiens, UniProt P35372); type: functional, cell-based;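 note: U2OS cells with beta-arrestin recruitment to OPRM1 by beta-gal complementation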
# Chain of Mu-type opioid receptor (P35372 whole entry): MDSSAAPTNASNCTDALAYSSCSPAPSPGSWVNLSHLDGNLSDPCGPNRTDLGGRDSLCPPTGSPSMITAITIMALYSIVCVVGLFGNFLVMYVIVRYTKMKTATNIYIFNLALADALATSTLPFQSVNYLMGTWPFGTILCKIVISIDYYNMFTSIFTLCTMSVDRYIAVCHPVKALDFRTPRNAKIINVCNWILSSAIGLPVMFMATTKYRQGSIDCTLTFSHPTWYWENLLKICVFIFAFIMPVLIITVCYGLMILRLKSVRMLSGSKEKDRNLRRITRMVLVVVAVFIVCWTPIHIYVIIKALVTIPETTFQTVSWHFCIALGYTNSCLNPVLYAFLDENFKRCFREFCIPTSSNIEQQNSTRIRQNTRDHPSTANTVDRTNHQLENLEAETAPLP
# [18] = mouse fibroblast viability loss – cell-based, cherry-pick samples, set 2, cytotoxicity control for T. cruzi growth inhibitor project, dose response (AID 651817); type: functional; conditions: NIH3T3
# [19] = Counterscreen for activators of the function of SWI/SNF related, matrix associated, actin dependent regulator of chromatin, subfamily a, member 2 (SMARCA2, BRM): Luminescence-based cell-based high throughput dose response assay to identify non-selective compounds using the VP16 reporter assay.; type: functional
# [20] = viability of HCT116 lacking mutant beta-catenin – cell-based, human colon tumor, dose response (AID 1045); type: functional;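 note: HCT116 colon tumor cells with beta catenin knocked out; cells exposed to compound for 60 hours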
# [21] = molecular target: SWI/SNF-related matrix-associated actin-dependent regulator of chromatin subfamily A member 2 (Homo sapiens, UniProt P51531); experiment: Luminescence-based cell-based high throughput dose response assay to identify activators of the function of SWI/SNF related, matrix associated, actin dependent regulator of chromatin, subfamily a, member 2 (SMARCA2, BRM).; type: functional
# Chain of SWI/SNF-related matrix-associated actin-dependent regulator of chromatin subfamily A member 2 (P51531 whole entry): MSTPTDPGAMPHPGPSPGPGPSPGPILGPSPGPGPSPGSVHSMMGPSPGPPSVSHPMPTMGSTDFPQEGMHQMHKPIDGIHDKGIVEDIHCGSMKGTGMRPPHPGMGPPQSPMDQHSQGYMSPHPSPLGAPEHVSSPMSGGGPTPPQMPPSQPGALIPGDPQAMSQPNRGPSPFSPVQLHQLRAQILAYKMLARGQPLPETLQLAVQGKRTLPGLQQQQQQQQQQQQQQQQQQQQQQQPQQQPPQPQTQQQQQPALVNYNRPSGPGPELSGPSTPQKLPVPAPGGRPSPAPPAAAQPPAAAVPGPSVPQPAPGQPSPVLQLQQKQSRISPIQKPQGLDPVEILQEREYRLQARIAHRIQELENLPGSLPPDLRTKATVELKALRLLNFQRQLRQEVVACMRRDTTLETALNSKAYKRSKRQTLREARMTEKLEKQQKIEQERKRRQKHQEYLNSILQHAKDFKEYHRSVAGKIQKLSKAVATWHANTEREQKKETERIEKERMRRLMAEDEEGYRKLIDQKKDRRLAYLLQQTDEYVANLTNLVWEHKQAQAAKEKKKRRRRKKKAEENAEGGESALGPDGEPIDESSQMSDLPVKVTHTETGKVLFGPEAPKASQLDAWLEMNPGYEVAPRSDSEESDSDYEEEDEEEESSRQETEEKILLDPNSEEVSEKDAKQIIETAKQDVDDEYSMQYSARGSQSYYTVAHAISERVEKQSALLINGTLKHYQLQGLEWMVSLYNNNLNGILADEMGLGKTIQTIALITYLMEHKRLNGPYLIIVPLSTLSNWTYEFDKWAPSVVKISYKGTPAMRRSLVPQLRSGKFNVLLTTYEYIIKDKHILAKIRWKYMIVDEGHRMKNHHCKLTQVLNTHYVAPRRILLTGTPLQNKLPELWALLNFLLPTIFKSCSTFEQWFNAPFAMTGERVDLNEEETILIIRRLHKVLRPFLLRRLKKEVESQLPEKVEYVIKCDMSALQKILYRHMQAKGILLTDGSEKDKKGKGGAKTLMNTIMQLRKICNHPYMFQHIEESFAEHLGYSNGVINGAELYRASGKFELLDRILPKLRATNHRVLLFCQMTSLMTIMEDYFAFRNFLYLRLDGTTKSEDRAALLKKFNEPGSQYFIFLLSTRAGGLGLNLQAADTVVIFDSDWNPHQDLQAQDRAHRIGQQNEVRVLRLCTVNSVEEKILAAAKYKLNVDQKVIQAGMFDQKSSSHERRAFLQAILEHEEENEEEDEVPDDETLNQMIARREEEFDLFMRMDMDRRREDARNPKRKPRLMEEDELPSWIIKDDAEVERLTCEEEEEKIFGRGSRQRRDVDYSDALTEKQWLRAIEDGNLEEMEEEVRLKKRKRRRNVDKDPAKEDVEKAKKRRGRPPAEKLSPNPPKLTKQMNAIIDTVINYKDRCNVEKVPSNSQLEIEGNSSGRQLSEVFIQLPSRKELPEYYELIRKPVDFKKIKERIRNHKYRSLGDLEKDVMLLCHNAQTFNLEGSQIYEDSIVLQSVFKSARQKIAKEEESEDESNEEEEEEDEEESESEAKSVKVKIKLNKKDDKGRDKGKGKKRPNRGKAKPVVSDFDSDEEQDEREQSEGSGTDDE
# [22] = viability of PTEN-deleted HCT116 cells – cell-based, HCT116 PTEN knockout, dose response (AID 1047); type: functional;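 note: HCT116 colon tumor cells with PTEN knocked out; cells exposed to compound for 60 hours before readout; potency for loss of cell viability measured by luminescence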
# [23] = molecular target: Broad substrate specificity ATP-binding cassette transporter ABCG2 (Homo sapiens, UniProt Q9UNQ0); experiment: blockers of JC-1 export by ABCG2 – Ig-MXP3 cells, flow cytometry, dose response (AID 1690); type: functional
# Chain of Broad substrate specificity ATP-binding cassette transporter ABCG2 (Q9UNQ0 whole entry): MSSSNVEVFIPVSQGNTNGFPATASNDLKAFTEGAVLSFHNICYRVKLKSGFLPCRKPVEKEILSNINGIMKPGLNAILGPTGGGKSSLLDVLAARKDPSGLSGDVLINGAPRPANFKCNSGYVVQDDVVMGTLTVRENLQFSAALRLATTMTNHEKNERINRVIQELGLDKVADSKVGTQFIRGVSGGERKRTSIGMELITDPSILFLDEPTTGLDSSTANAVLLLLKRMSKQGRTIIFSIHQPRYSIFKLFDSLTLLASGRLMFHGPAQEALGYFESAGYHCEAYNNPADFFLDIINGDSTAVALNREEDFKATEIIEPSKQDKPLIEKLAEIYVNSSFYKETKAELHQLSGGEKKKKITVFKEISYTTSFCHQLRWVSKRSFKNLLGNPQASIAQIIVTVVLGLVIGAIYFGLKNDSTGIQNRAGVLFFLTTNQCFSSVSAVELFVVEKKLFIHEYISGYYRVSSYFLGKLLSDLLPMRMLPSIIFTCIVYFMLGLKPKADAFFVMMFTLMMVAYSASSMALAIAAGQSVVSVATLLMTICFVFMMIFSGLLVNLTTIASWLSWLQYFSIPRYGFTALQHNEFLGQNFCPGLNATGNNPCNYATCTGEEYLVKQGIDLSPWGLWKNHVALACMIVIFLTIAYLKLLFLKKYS
# T1 sequence (P07550 whole entry, the tested form may be a part): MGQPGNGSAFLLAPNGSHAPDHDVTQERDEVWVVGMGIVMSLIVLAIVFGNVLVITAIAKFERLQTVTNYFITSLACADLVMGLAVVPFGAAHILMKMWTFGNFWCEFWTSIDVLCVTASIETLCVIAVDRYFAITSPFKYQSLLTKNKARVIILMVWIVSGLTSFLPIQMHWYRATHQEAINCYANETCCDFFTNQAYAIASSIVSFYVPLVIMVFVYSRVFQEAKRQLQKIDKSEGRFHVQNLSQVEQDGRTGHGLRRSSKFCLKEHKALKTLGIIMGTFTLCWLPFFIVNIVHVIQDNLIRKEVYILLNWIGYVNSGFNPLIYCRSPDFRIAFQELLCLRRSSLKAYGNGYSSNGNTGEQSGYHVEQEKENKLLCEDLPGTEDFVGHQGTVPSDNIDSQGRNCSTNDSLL
smiles,measurement,setting,value
Cc1ccc(SCC(=O)Nc2ccc(-c3nnc(-c4ccco4)o3)cc2)cc1,EC50,[1],0.629 µM (active)
same,IC50,[2],9.04 µM (active)
same,EC50,[3],0.713 µM (active)
O=C(O)COc1ccccc1/C=N/n1c(S)nnc1C1CCCCC1,IC50,Beta Lactamase [4],23.1 µM (inactive)
same,IC50,Beta-lactamase [5],> 59.6 µM (inactive)
same,IC50,Beta Lactamase [6],8.62 µM (active)
same,IC50,Beta-lactamase [7],> 59.6 µM (inactive)
same,IC50,Beta-lactamase [8],> 59.6 µM (inactive)
Cc1ccc(/C=C2/CNC/C(=C/c3ccc(C)cc3)C2=O)cc1,AC50,[9],10.3 µM (active)
Cc1nnc2sc(-c3ccc(NC(=O)c4ccc(-c5ccc(Cl)cc5Cl)o4)cc3)nn12,IC50,[10],2.48 µM (active)
same,IC50,[11],0.716 µM (active)
same,IC50,[12],> 80 µM (inactive)
same,IC50,[13],0.409 µM (active)
N#Cc1ccc(CN2CCN(C(=O)CC(NC(=O)c3ccccc3)c3ccccc3)CC2)cc1 (stereo unspecified),AC50,Vero,38.1 µM (active)
Cc1cc(=O)n(-c2ccc(O)cc2)[nH]1,IC50,[14],19.1 µM (active)
same,IC50,[15],17.2 µM (active)
same,AC50,[16],2.3 µM (active)
same,EC50,Protein RecA,0.774 µM (active)
CCCN1CCC[C@@H](c2cccc(O)c2)C1 [PRECLAMOL HYDROCHLORIDE],EC50,[17],76 µM (inactive)
same,EC50,Mu-type opioid receptor,92.4 µM (inactive)
C[C@H](CO)N1C[C@H](C)[C@H](CN(C)Cc2ccc(Cl)c(Cl)c2)Oc2c(NC(=O)Nc3ccc(C(F)(F)F)cc3)cccc2C1=O,AC50,[18],12.9 µM (active)
OC1CCCN(Cc2ccc3ccc4cccc5ccc2c3c45)C1 (stereo unspecified),EC50,[19],> 91.2 µM (inactive)
same,EC50,[20],8.21 µM (active)
same,EC50,[21],> 10.1 µM (inactive)
same,EC50,[22],8.96 µM (active)
COc1ccc2cc(C(=O)OC(C)C)sc(=O)c2c1OC,EC50,[23],24.4 µM (inactive)
